Source: patent publication US9637490B2, “Antifungal 5,6-dihydro-4-[(difluoroethyl)phenyl]-4H-pyrrolo[1,2-α][1,4]benzodiazepine and 4-(difluoroethyl)phenyl-6H-pyrrolo[1,2-α][1,4]benzodiazepine derivatives” (Janssen Pharmaceutica NV, priority 2010, dated 2017)

Assays:
[1] = system: Microsporum canis (strain B68128); assay: Test D.4.1: activity against M. canis in guinea-pigs after oral treatment for 7 consecutive days; format: in vivo; set-up: key to semi-quantitative lesion score (mean): lesion score 0–3.5 by severity and size of lesion
Procedure, shortened: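 Female Duncan-Hartley guinea pigs, scarified depilated dorsum inoculated with 10^6 cfu M. canis spores in honey-water. Compounds in methocel 0.5%/Tween 80 vehicle given by oral gavage once daily for 7 days, starting ~2 h pre-infection; itraconazole reference. Lesions scored semi-quantitatively (0–3.5) on days 3–20 post-infection; mean scores.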

[2] = system: Aspergillus fumigatus B42928; assay: Antifungal activity in vitro (resazurin susceptibility screen), Inf. E; format: cell-based; details: Aspergillus fumigatus, B42928, Aspergillus fumigatus B42928; 27 °C, 48 hours, resa time 17 hours
Procedure, shortened: (§1)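 Serial dilutions were tested up to 64 μM in RPMI-1640 with L-glutamine and 2% glucose, MOPS-buffered at pH 7.0, against an inoculum of 10^3 cfu per well. Incubation lasted from 24 h at 37° C. for yeasts to a week or more at 27° C. for dermatophytes. Growth was then read fluorimetrically after resazurin (ex 550/em 590 nm).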

Microsporum canis B68128 = assay: Antifungal activity in vitro (resazurin susceptibility screen), Inf. B; format: cell-based; details: Microsporum canis, B68128, Microsporum canis B68128; 27 °C, 9 days, resa time 24 hours
Procedure, shortened: as §1

[3] = system: Scedosporium prolificans IHEM21157; assay: Antifungal activity in vitro (resazurin susceptibility screen), Inf. I; format: cell-based; details: Lomentospora prolificans, 37 °C, 48 hours, resa time 17 hours
Procedure, shortened: as §1

[4] = system: Rhizomucor miehei IHEM13391; assay: Antifungal activity in vitro (resazurin susceptibility screen), Inf. K; format: cell-based; details: Rhizomucor miehei, IHEM13391, Rhizomucor miehei IHEM13391; 37 °C, 48 hours, resa time 17 hours
Procedure, shortened: as §1

[5] = system: Cryptococcus neoformans B66663; assay: Antifungal activity in vitro (resazurin susceptibility screen), Inf. F; format: cell-based; details: Cryptococcus neoformans, B66663, Cryptococcus neoformans B66663; 37 °C, 24 hours, resa time 4 hours
Procedure, shortened: as §1

[6] = system: Trichophyton mentagrophytes B70554; assay: Antifungal activity in vitro (resazurin susceptibility screen), Inf. G; format: cell-based; details: Trichophyton mentagrophytes, B70554, Trichophyton mentagrophytes B70554; 27 °C, 7 days, resa time 24 hours
Procedure, shortened: as §1

[7] = system: Mucor circinelloides IHEM21105; assay: Antifungal activity in vitro (resazurin susceptibility screen), Inf. L; format: cell-based; details: 27 °C, 48 hours, resa time 17 hours
Procedure, shortened: as §1

IC50 [2]: 2.24 µM
IC50 (Microsporum canis B68128): 0.479 µM
IC50 [3]: 0.148 µM
IC50 [4]: > 64.6 µM
IC50 [5]: 21.4 µM
IC50 [6]: 0.891 µM
IC50 [7]: > 64.6 µM
SMILES: CC(F)(F)c1ccc(C2=NCc3c(Cl)cccc3-n3cccc32)cc1 [Compound 4, 7-chloro-4-[4-(1,1-difluoroethyl)phenyl]-6H-pyrrolo[1,2-a][1,4]benzodiazepine]
semi-quantitative lesion score (mean) ([1]; oral 5 mg/kg once daily for 7 days, 3 DPI): 0
semi-quantitative lesion score (mean) ([1]; oral 5 mg/kg once daily for 7 days, 5 DPI): 0.67
semi-quantitative lesion score (mean) ([1]; oral 5 mg/kg once daily for 7 days, 7 DPI): 1.50
semi-quantitative lesion score (mean) ([1]; oral 5 mg/kg once daily for 7 days, 10 DPI): 2.00
semi-quantitative lesion score (mean) ([1]; oral 5 mg/kg once daily for 7 days, 12 DPI): 2.17
semi-quantitative lesion score (mean) ([1]; oral 5 mg/kg once daily for 7 days, 14 DPI): 1.83
semi-quantitative lesion score (mean) ([1]; oral 5 mg/kg once daily for 7 days, 17 DPI): 1.33
semi-quantitative lesion score (mean) ([1]; oral 5 mg/kg once daily for 7 days, 20 DPI): 1.17
activity compared with the terbinafine group (G2, 10 mg/kg) ([1]; oral 10 mg/kg once daily for 7 days): comparable to G2
semi-quantitative lesion score (mean) ([1]; oral 10 mg/kg once daily for 7 days, 3 DPI): 0
semi-quantitative lesion score (mean) ([1]; oral 10 mg/kg once daily for 7 days, 5 DPI): 0
semi-quantitative lesion score (mean) ([1]; oral 10 mg/kg once daily for 7 days, 7 DPI): 0.33
semi-quantitative lesion score (mean) ([1]; oral 10 mg/kg once daily for 7 days, 10 DPI): 1.00
semi-quantitative lesion score (mean) ([1]; oral 10 mg/kg once daily for 7 days, 12 DPI): 1.50
semi-quantitative lesion score (mean) ([1]; oral 10 mg/kg once daily for 7 days, 14 DPI): 1.50
semi-quantitative lesion score (mean) ([1]; oral 10 mg/kg once daily for 7 days, 17 DPI): 0.50
semi-quantitative lesion score (mean) ([1]; oral 10 mg/kg once daily for 7 days, 20 DPI): 0.33
activity compared with the terbinafine group (G2, 10 mg/kg) ([1]; oral 40 mg/kg once daily for 7 days): remarkably more active than the terbinafine group
semi-quantitative lesion score (mean) ([1]; oral 40 mg/kg once daily for 7 days, 3 DPI): 0
semi-quantitative lesion score (mean) ([1]; oral 40 mg/kg once daily for 7 days, 5 DPI): 0.17
semi-quantitative lesion score (mean) ([1]; oral 40 mg/kg once daily for 7 days, 7 DPI): 0.17
semi-quantitative lesion score (mean) ([1]; oral 40 mg/kg once daily for 7 days, 10 DPI): 0.17
semi-quantitative lesion score (mean) ([1]; oral 40 mg/kg once daily for 7 days, 12 DPI): 0.17
semi-quantitative lesion score (mean) ([1]; oral 40 mg/kg once daily for 7 days, 14 DPI): 0
semi-quantitative lesion score (mean) ([1]; oral 40 mg/kg once daily for 7 days, 17 DPI): 0.17
semi-quantitative lesion score (mean) ([1]; oral 40 mg/kg once daily for 7 days, 20 DPI): 0.17
